These results are taken from patent US20120135923A1, “Use of Melanocortins to Treat Dyslipidemia” (IPSEN PHARMA, S.A.S., priority 2009, published 2012).

The structures appear in SMILES notation. Read-outs that look alike come from different tables or passages of the source. Bridge positions count the residues as written; N and C are the ends. Square brackets hold non-standard residues; d marks the D form. Peptide text beside a SMILES is read from it. Bip = N[C@@H](Cc1ccc(-c2ccccc2)cc1)C(=O)O; βAla = NCCC(=O)O

As a reminder, the Ki is the dissociation constant of the complex between target and ligand, obtained from inhibition or displacement. The term EC50 denotes the midpoint of the concentration-response curve.

For assay [1], the target named is T1, hMC4-R (Homo sapiens, UniProt P32245).
T1 construct: expressed in transfected cells; host or cells: CHO-K1
T1 sequence (P32245 whole entry): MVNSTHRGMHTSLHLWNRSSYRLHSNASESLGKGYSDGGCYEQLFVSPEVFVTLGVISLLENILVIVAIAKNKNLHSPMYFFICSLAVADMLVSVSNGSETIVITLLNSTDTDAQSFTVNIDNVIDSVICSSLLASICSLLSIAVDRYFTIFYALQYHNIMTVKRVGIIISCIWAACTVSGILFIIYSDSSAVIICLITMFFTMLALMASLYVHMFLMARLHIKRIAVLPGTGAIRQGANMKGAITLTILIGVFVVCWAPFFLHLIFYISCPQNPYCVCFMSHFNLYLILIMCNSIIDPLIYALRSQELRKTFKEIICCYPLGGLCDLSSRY
Nature of the assay: Radioligand binding assay, [125I]-NDP-α-MSH competition, CHO-K1 membranes. On the procedure: (§1) Cellular membranes used for the in vitro receptor binding assays were obtained from transgenic CHO-K1 cells stably expressing hMC-R receptor subtypes 1, 3, 4 or 5. […] The pellets were resuspended in the same buffer and centrifuged at 50,000 g for 10 minutes at approximately 4° C. The washed pellets containing the cellular membranes were stored at approximately −80° C.
(§2) Cell membranes (1-10 μg protein/well) prepared as described above were incubated in 50 mM Tris-HCl at pH 7.4 containing 0.2% bovine serum albumin (BSA), 5 mM MgCl2, 1 mM CaCl2 and 0.1 mg/mL bacitracin, with increasing concentrations of the test compound and 0.1-0.3 nM [^25I]-NDP-α-MSH for approximately 90-120 minutes at approximately 37° C. […] Filters were washed three times with 50 mM Tris-HCl at pH 7.4 at a temperature of approximately 0-4° C. and then assayed for radioactivity using a Packard Topcount® scintillation counter. Binding data were analyzed by computer-assisted non-linear regression analysis (XL fit; IDBS).

The target in assay [2] is T2, hMC5-R (Homo sapiens, UniProt P33032).
T2 construct: expressed in transfected cells; host or cells: CHO-K1
T2 sequence (P33032 whole entry): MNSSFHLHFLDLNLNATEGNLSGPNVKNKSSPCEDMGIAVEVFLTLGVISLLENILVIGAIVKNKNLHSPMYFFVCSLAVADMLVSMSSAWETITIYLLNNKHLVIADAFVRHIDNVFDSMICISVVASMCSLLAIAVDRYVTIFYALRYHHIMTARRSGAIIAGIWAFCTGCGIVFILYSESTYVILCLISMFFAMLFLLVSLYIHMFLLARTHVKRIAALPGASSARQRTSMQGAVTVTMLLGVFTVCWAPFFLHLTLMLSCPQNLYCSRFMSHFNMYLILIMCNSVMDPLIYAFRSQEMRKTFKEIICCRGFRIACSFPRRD
The description is as above. How it is done: as §1, §2

The target of assay [3] is T3, hMC3-R (Homo sapiens, UniProt P41968).
T3 construct: expressed in transfected cells; host or cells: CHO-K1
T3 sequence (P41968 whole entry): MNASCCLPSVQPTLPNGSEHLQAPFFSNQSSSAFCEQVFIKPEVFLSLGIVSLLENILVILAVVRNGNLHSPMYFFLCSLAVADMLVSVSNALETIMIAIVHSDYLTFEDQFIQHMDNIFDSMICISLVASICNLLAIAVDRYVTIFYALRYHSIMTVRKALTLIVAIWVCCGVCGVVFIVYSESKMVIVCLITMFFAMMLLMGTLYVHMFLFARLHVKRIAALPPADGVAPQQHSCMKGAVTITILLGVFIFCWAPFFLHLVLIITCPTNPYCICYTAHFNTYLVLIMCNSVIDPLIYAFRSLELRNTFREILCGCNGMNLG
The description is as above. The conditions noted are these: Table 5. On the procedure: as §1, §2

In assay [4] the target is T4, hMC1-R (Homo sapiens, UniProt Q01726).
T4 construct: expressed in transfected cells; host or cells: CHO-K1
T4 sequence (Q01726 whole entry): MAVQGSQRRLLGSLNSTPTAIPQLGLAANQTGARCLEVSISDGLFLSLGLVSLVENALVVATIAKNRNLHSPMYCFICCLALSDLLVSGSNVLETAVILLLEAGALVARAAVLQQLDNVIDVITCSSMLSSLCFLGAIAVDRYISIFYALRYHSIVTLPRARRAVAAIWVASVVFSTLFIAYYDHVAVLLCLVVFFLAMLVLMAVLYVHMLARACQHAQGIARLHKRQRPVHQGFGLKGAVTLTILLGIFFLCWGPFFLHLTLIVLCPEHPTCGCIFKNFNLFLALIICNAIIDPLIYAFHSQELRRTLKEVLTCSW
The description is as above. How it is done: as §1, §2

The target of assay [5] is T3, hMC3-R. Briefly: cyclic AMP bioassay (ECL) in CHO-K1 cells. The class given is cell-based.
Experimental: (§3) Intracellular cyclic AMP (cAMP) levels were determined by an electrochemiluminescence (ECL) assay (Meso Scale Discovery®, Gaithersburg, Md.; referred to hereinafter as MSD). […] Transgenic CHO-K1 cells stably expressing hMC receptor subtypes 1, 3, 4 or 5 were dispensed at a density of approximately 7,000 cells/well in 384-well Multi-Array®plates (MSD) containing integrated carbon electrodes and coated with anti-cAMP antibody. Increasing concentrations of the test compounds were added and the cells were incubated for approximately 40 minutes at approximately 37° C. […] At the end of the second incubation period read buffer (Tris-buffered solution containing an ECL co-reactant and Triton X-100 at ph 7.8) was added and the cAMP levels in the cell lysates were immediately determined by ECL detection with a Sector Imager 6000 Reader® (MSD). Data were analyzed using a computer-assisted non-linear regression analysis (XL fit; IDBS) and reported as either an EC50 value or a Kb value.
(§4) The Kb value reflects the potency of an antagonist and is determined by Schild analysis. In brief, concentration-response curves of an agonist are carried out in the presence of increasing concentrations of an antagonist. […] It is calculated by extrapolating the line on a Schild plot to zero on the y-axis.
Assay [6] concerns the target T1, hMC4-R. Briefly: cyclic AMP bioassay (ECL) in CHO-K1 cells. Format: cell-based.
Experimental: as §3, §4
For assay [7], the target named is T4, hMC1-R. Briefly: cyclic AMP bioassay (ECL) in CHO-K1 cells. The class given is cell-based.
For assay [8], the target named is T2, hMC5-R. Nature of the assay: cyclic AMP bioassay (ECL) in CHO-K1 cells. The class given is cell-based.
[9] abbreviates: Table 9A/9B, read-out: EC50 hMC3-R.
Setting [10] is: Table 9A/9B, read-out: EC50 hMC1-R.
The mark [11] stands for this setting: Table 9A/9B, read-out: EC50 hMC4-R.
[12] abbreviates: Table 9A/9B, read-out: EC50 hMC5-R.

As to `CCCC[C@H](NC(C)=O)C(=O)N[C@H]1CSSC(C)(C)[C@@H](C(=O)O)NC(=O)[C@H](Cc2c[nH]c3ccccc23)NC(=O)[C@H](CCCNC(=N)N)NC(=O)[C@@H](Cc2ccccc2)NC(=O)[C@H](Cc2c[nH]cn2)NC(=O)[C@@H](C)NC1=O` [Ac-Nle-c(Cys-D-Ala-His-D-Phe-Arg-Trp-Pen)-OH], the Ki on hMC4-R [1] (Ki KMC4-R, Table 5) was 17.4 nM; on hMC5-R [2] (Ki hMC5-R, Table 5), 165 nM.

For `C[C@@H](O)[C@H](NC(=O)[C@H]1CSSC[C@H](NC(=O)[C@H](N)Cc2ccccc2)C(=O)N[C@@H](Cc2c[nH]cn2)C(=O)N[C@H](Cc2ccccc2)C(=O)N[C@@H](CCCNC(=N)N)C(=O)N[C@@H](Cc2ccc(-c3ccccc3)cc2)C(=O)NCCC(=O)N1)C(N)=O` [D-Phe-c(Cys-His-D-Phe-Arg-Bip-β-Ala-D-Cys)-Thr-NH2] (H-[dF]CH[dF]R[Bip][βAla][dC]T-NH2; disulfide 2-8), the Ki at hMC3-R [3] (read-out: Ki hMC3-R) is 3370 nM; at hMC1-R [4] (Table 5, read-out: Ki hMC1-R) it was 5.8 nM; on hMC4-R [1] (Table 5, read-out: Ki KMC4-R), 583 nM; at hMC5-R [2] (Table 5, read-out: Ki hMC5-R), 1130 nM.

On to `CCCC[C@H](NC(C)=O)C(=O)N[C@H]1CSSC[C@@H](C(=O)O)NC(=O)[C@H](Cc2c[nH]c3ccccc23)NC(=O)[C@H](CCCNC(=N)N)NC(=O)[C@@H](Cc2ccccc2)NC(=O)[C@H](Cc2c[nH]cn2)NC(=O)[C@@H](C)NC1=O` [Ac-Nle-c(Cys-D-Ala-His-D-Phe-Arg-Trp-Cys)-OH], for which the Ki on hMC3-R [3] (Ki hMC3-R) was determined as 152 nM; on hMC1-R [4] (Ki hMC1-R, Table 5), 30.7 nM; at hMC4-R [1] (Ki KMC4-R, Table 5), 15.6 nM; at hMC5-R [2] (Ki hMC5-R, Table 5), 114 nM.

For `C[C@@H]1C(=O)N[C@@H](Cc2cnc[nH]2)C(=O)N[C@H](Cc2ccccc2)C(=O)N[C@@H](CCCNC(=N)N)C(=O)N[C@@H](Cc2c[nH]c3ccccc23)C(=O)N[C@H](C(N)=O)CNC(=O)C[C@@H]2NC(=O)N1C2=O` [c[Hydantoin(C(O)-(Asp-D-Ala))-His-D-Phe-Arg-Trp-Dap]-NH2], the EC50 was found to be 49.3 nM on hMC3-R [5] (Table 11, read-out: EC50 hMC3) and 2.12 nM at hMC4-R [6] (Table 11, read-out: EC50 hMC4). The Ki on hMC1-R [4] (Table 7, read-out: Ki hMC1) was found to be 66.6 nM; on hMC4-R [1] (Table 7, read-out: Ki hMC4), 19.9 nM.

Take `C[C@@H](O)[C@H](NC(=O)[C@H]1CSSC[C@H](NC(=O)[C@H](N)Cc2ccccc2)C(=O)N[C@@H](Cc2c[nH]cn2)C(=O)N[C@H](Cc2ccccc2)C(=O)N[C@@H](CCCNC(=N)N)C(=O)N[C@@H](Cc2c[nH]c3ccccc23)C(=O)NCCC(=O)N1)C(N)=O` [D-Phe-c(Cys-His-D-Phe-Arg-Trp-β-Ala-D-Cys)-Thr-NH2] (H-[dF]CH[dF]RW[βAla][dC]T-NH2; disulfide 2-8): the Ki at hMC3-R [3] (read-out: Ki hMC3-R) was 43.2 nM; at hMC1-R [4] (Table 5, read-out: Ki hMC1-R), 0.207 nM; at hMC4-R [1] (Table 5, read-out: Ki KMC4-R), 2.58 nM; on hMC5-R [2] (Table 5, read-out: Ki hMC5-R), 344 nM.

As to `CCOc1ccc(C[C@H]2NC(=O)[C@H](Cc3c[nH]cn3)NC(=O)[C@@H](NC(=O)[C@H](N)Cc3ccccc3)CSSC[C@H](C(=O)N[C@H](C(N)=O)[C@@H](C)O)NC(=O)CCNC(=O)[C@H](Cc3c[nH]c4ccccc34)NC(=O)[C@H](CCCNC(=N)N)NC2=O)cc1` [D-Phe-c(Cys-His-D-(Et)Tyr-Arg-Trp-β-Ala-D-Cys)-Thr-NH2] (H-[dF]CH[dY](Et)RW[βAla][dC]T-NH2; disulfide 2-8), the EC50 stood at 1.1 nM at hMC3-R [5] (setting [9]), 0.35 nM on hMC1-R [7] (setting [10]), 0.11 nM at hMC4-R [6] (setting [11]) and 0.37 nM at hMC5-R [8] (setting [12]). Further, the Ki stood at 9.3 nM on hMC3-R [3] (read-out: Ki hMC3-R); 0.05 nM on hMC1-R [4] (Table 5, read-out: Ki hMC1-R); 2.9 nM at hMC5-R [2] (Table 5, read-out: Ki hMC5-R).

As for `CC(=O)N[C@H]1CSSC[C@@H](C(=O)N2CCC[C@H]2C(=O)N2CCC[C@H]2C(=O)N[C@@H](CCCCN)C(=O)N[C@@H](CC(=O)O)C(=O)NCCC(=O)N[C@@H](CCCNC(=N)N)C(=O)N[C@@H](CCCNC(=N)N)C(=O)N[C@@H](CCCCN)C(=O)N[C@@H](CCCNC(=N)N)C(=O)N[C@@H](CCCNC(=N)N)C(=O)N[C@@H](CCC(N)=O)C(=O)N[C@@H](CCCNC(=N)N)C(=O)N[C@@H](CCCNC(=N)N)C(=O)N[C@@H](CCCNC(=N)N)C(N)=O)NC(=O)[C@H](C)NC(=O)[C@H](Cc2csc3ccccc23)NC(=O)[C@H](CCCNC(=N)N)NC(=O)[C@@H](Cc2ccc3ccccc3c2)NC(=O)[C@H](Cc2c[nH]cn2)NC(=O)[C@H](CCC(=O)O)NC1=O`, the EC50 turned out to be 232 nM on hMC1-R [7] and 250 nM at hMC5-R [8]. Also, the Kb at hMC4-R [6] was found to be 10 nM. Moreover, the Ki at hMC4-R [1] (Ki hMC4-R, Table 6) was 0.442 nM; at hMC5-R [2] (Ki hMC5-R, Table 6), 15.5 nM.

For the compound `CC(=O)N[C@H](CCCNC(=N)N)C(=O)N[C@H]1CSSC(C)(C)[C@@H](C(N)=O)NC(=O)[C@H](Cc2c[nH]c3ccccc23)NC(=O)[C@H](CCCNC(=N)N)NC(=O)[C@@H](Cc2ccccc2)NC(=O)[C@H](Cc2c[nH]cn2)NC(=O)[C@@H](C)NC1=O` [Ac-D-Arg-c(Cys-D-Ala-His-D-Phe-Arg-Trp-Pen)-NH2], the EC50 at hMC3-R [5] came to 10.5 nM; on hMC1-R [7], 26.5 nM; at hMC4-R [6], 0.493 nM; at hMC5-R [8], 2440 nM. In addition, the Ki on hMC3-R [3] (Ki hMC3-R) is 13.3 nM; on hMC1-R [4] (Ki hMC1-R, Table 5), 8.29 nM; on hMC5-R [2] (Ki hMC5-R, Table 5) it was 816 nM.

Regarding `CC(=O)N[C@@H](CC1CCCCC1)C(=O)N[C@H]1CC(=O)NCCCC[C@@H](C(N)=O)NC(=O)CCCNC(=O)[C@H](Cc2c[nH]c3ccccc23)NC(=O)[C@H](CCCNC(=N)N)NC(=O)[C@@H](Cc2ccccc2)NC(=O)[C@H](Cc2c[nH]cn2)NC1=O` [Ac-Cha-c(Asp-His-D-Phe-Arg-Trp-Gaba-Lys)-NH2], the EC50 at hMC3-R [5] (setting [9]) turned out to be 0.189 nM; at hMC1-R [7] (setting [10]), 3.26 nM; at hMC4-R [6] (setting [11]), 0.0949 nM; on hMC5-R [8] (setting [12]), 30.2 nM. At hMC4-R [1] (Table 5, read-out: Ki KMC4-R), the Ki was found to be 1.49 nM.

For the compound `CC(=O)N[C@@H](CCc1ccccc1)C(=O)N[C@H]1CC(=O)NCCCC[C@@H](C(N)=O)NC(=O)CCCNC(=O)[C@H](Cc2c[nH]c3ccccc23)NC(=O)[C@H](CCCNC(=N)N)NC(=O)[C@@H](Cc2ccc3ccccc3c2)NC(=O)[C@H](Cc2c[nH]cn2)NC1=O` [Ac-hPhe-c(Asp-His-D-2-Nal-Arg-Trp-Gaba-Lys)-NH2], the Kb stood at 9.32 nM on hMC3-R [5] (Table 9C/9D, antagonist potency by Schild analysis, read-out: Kb hMC3-R) and 0.824 nM on hMC4-R [6] (Table 9C/9D, antagonist potency by Schild analysis, read-out: Kb MC4-R). Moreover, the EC50 on hMC1-R [7] (Table 9C/9D, read-out: EC50 hMC1-R) amounted to 0.413 nM; on hMC5-R [8] (Table 9C/9D, read-out: EC50 hMC5-R) it was 0.307 nM. Besides, the Ki on hMC3-R [3] (read-out: Ki hMC3-R) is 2.45 nM; at hMC1-R [4] (Table 5, read-out: Ki hMC1-R), 0.461 nM; on hMC4-R [1] (Table 5, read-out: Ki KMC4-R), 0.931 nM.

With `CC[C@H](C)[C@@H]1NC(=O)N([C@H]2CSSC[C@@H](C(N)=O)NC(=O)[C@H](Cc3c[nH]c4ccccc34)NC(=O)[C@H](CCCNC(=N)N)NC(=O)[C@@H](Cc3ccccc3)NC(=O)[C@H](Cc3cnc[nH]3)NC(=O)[C@@H](C)NC2=O)C1=O` [c[Hydantoin(C(O)-(Ile-Cys))-D-Ala-His-D-Phe-Arg-Trp-Cys]-NH2], the EC50 at hMC3-R [5] is 8.51 nM; on hMC4-R [6], 1.85 nM. Also, the Ki turned out to be 53.4 nM at hMC1-R [4] (Ki hMC1, Table 7) and 41.6 nM on hMC4-R [1] (Ki hMC4, Table 7).

`CCCC[C@H](NC(C)=O)C(=O)N[C@H]1CSSC[C@@H](C(N)=O)NC(=O)[C@H](Cc2c[nH]c3ccccc23)NC(=O)[C@H](CCCNC(=N)N)NC(=O)[C@@H](Cc2ccc3ccccc3c2)NC(=O)[C@H](Cc2c[nH]cn2)NC(=O)[C@@H](C)NC1=O` [Ac-Nle-c(Cys-D-Ala-His-D-2-Nal-Arg-Trp-Cys)-NH2]: the Kb on hMC3-R [5] is 12.4 nM; at hMC4-R [6], 38.8 nM. Besides, the concentration giving a half-maximal response (EC50) at hMC1-R [7] was determined as 17.6 nM; at hMC5-R [8], 11.8 nM. In addition, the Ki was determined as 7.61 nM at hMC4-R [1] (Ki KMC4-R, Table 5) and 102 nM on hMC5-R [2] (Ki hMC5-R, Table 5).
